Measured values from ChEMBL document CHEMBL1201862, “PubChem BioAssay data set” (2004).
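Dose response: 5 concentrations. Exposure: 48 h. Format: 96-well plates. Endpoint: linear interpolation; highest concentration if not reached. The concentration for 50% growth inhibition is given as GI50.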 Activity calls are given as the source filed them. Rule as the data show it: active = GI50 up to about 1.1 µM and inactive = higher.

What was measured:
Test in all cases: inhibition of tumour cell growth, NCI panel, 48 h
HOP-62 = tested on: HOP-62
TK-10 = tested on: TK-10
SNB-19 = tested on: SNB-19
OVCAR-5 = tested on: OVCAR-5
SK-MEL-2 = tested on: SK-MEL-2
OVCAR-4 = tested on: OVCAR-4
UO-31 = tested on: UO-31
LOX IMVI = tested on: LOX IMVI
SR = tested on: SR
HCT-116 = tested on: HCT-116
EKVX = tested on: EKVX
ACHN = tested on: ACHN
HCC 2998 = tested on: HCC 2998
MOLT-4 = tested on: MOLT-4
NCI-H226 = tested on: NCI-H226
SW-620 = tested on: SW-620
HOP-92 = tested on: HOP-92
CAKI-1 = tested on: CAKI-1
RPMI-8226 = tested on: RPMI-8226
SF-295 = tested on: SF-295

SMILES	GI50 (HOP-62)	GI50 (TK-10)	GI50 (SNB-19)	GI50 (OVCAR-5)	GI50 (SK-MEL-2)	GI50 (OVCAR-4)	GI50 (UO-31)	GI50 (LOX IMVI)	GI50 (SR)	GI50 (HCT-116)	GI50 (EKVX)	GI50 (ACHN)	GI50 (HCC 2998)	GI50 (MOLT-4)	GI50 (NCI-H226)	GI50 (SW-620)	GI50 (HOP-92)	GI50 (CAKI-1)	GI50 (RPMI-8226)	GI50 (SF-295)
Cc1cccc(NC(N)=S)c1	> 100 µM (inactive)	> 100 µM (inactive)	> 100 µM (inactive)	> 100 µM (inactive)	> 100 µM (inactive)	> 100 µM (inactive)	> 100 µM (inactive)	> 100 µM (inactive)	> 100 µM (inactive)	> 100 µM (inactive)	> 100 µM (inactive)	> 100 µM (inactive)	> 100 µM (inactive)	> 100 µM (inactive)	–	–	–	–	–	–
C#CCNC(=O)CCC(N)C(=O)O (stereo not drawn)	> 100 µM (inactive)	–	> 100 µM (inactive)	> 100 µM (inactive)	> 100 µM (inactive)	> 100 µM (inactive)	> 100 µM (inactive)	> 100 µM (inactive)	–	> 100 µM (inactive)	> 100 µM (inactive)	–	> 100 µM (inactive)	> 100 µM (inactive)	> 100 µM (inactive)	> 100 µM (inactive)	> 100 µM (inactive)	> 100 µM (inactive)	> 100 µM (inactive)	> 100 µM (inactive)
COc1c2c(c3ccccc3c1O)C1C=CC2C1 (stereo not drawn)	16.1 µM (inactive)	22.3 µM (inactive)	> 10 µM (inactive)	18.7 µM (inactive)	17.3 µM (inactive)	15.4 µM (inactive)	5.35 µM (inactive)	4.48 µM (inactive)	21 µM (inactive)	4 µM (inactive)	18.8 µM (inactive)	14.4 µM (inactive)	16.1 µM (inactive)	13.2 µM (inactive)	> 10 µM (inactive)	14.2 µM (inactive)	–	17.1 µM (inactive)	> 100 µM (inactive)	–
COC(=O)C1=C(C)N2CCSC2(C)C(C(=O)OC)C1c1cccc(Cl)c1 (stereo not drawn)	18.9 µM (inactive)	41.9 µM (inactive)	16.6 µM (inactive)	–	17.7 µM (inactive)	49.7 µM (inactive)	13.2 µM (inactive)	–	15.5 µM (inactive)	13.6 µM (inactive)	12.6 µM (inactive)	24.8 µM (inactive)	21 µM (inactive)	14.6 µM (inactive)	19.2 µM (inactive)	37.1 µM (inactive)	13.4 µM (inactive)	14 µM (inactive)	10.3 µM (inactive)	13.9 µM (inactive)
O=C(O)C(Br)Cc1ccc2c(c1)OCO2 (stereo not drawn)	> 100 µM (inactive)	–	> 100 µM (inactive)	> 100 µM (inactive)	> 100 µM (inactive)	88.7 µM (inactive)	> 100 µM (inactive)	–	> 100 µM (inactive)	> 100 µM (inactive)	> 100 µM (inactive)	> 100 µM (inactive)	> 100 µM (inactive)	> 100 µM (inactive)	–	> 100 µM (inactive)	> 100 µM (inactive)	> 100 µM (inactive)	> 100 µM (inactive)	55.5 µM (inactive)
Oc1cc2cc(O)nc(O)c2c(O)n1	> 100 µM (inactive)	> 100 µM (inactive)	> 100 µM (inactive)	> 100 µM (inactive)	–	> 100 µM (inactive)	> 100 µM (inactive)	> 100 µM (inactive)	> 100 µM (inactive)	> 100 µM (inactive)	–	–	–	> 100 µM (inactive)	> 100 µM (inactive)	> 100 µM (inactive)	> 100 µM (inactive)	> 100 µM (inactive)	> 100 µM (inactive)	> 100 µM (inactive)
COP(=O)(OC)C(Cc1c[nH]c2ccccc12)NC(=O)OCc1ccccc1 (stereo not drawn)	> 100 µM (inactive)	> 100 µM (inactive)	> 100 µM (inactive)	> 100 µM (inactive)	> 100 µM (inactive)	91 µM (inactive)	> 100 µM (inactive)	> 100 µM (inactive)	> 100 µM (inactive)	> 100 µM (inactive)	–	> 100 µM (inactive)	> 100 µM (inactive)	–	> 100 µM (inactive)	> 100 µM (inactive)	> 100 µM (inactive)	> 100 µM (inactive)	> 100 µM (inactive)	> 100 µM (inactive)
Cc1cc(O)nc(NN2C(Cl)C(=O)C2c2ccco2)n1 (stereo not drawn)	32.6 µM (inactive)	61.2 µM (inactive)	32 µM (inactive)	> 100 µM (inactive)	27.6 µM (inactive)	19.7 µM (inactive)	23.1 µM (inactive)	23.3 µM (inactive)	28.4 µM (inactive)	43.4 µM (inactive)	87.5 µM (inactive)	28.2 µM (inactive)	60 µM (inactive)	21.8 µM (inactive)	–	64.9 µM (inactive)	25.1 µM (inactive)	–	16.3 µM (inactive)	–
CC1=Nc2nc(Cl)cn2C(=O)C1(Cl)Cl	> 10 µM (inactive)	> 10 µM (inactive)	> 10 µM (inactive)	> 10 µM (inactive)	> 10 µM (inactive)	> 10 µM (inactive)	> 10 µM (inactive)	> 10 µM (inactive)	> 10 µM (inactive)	> 10 µM (inactive)	> 10 µM (inactive)	> 10 µM (inactive)	> 10 µM (inactive)	> 10 µM (inactive)	> 10 µM (inactive)	> 10 µM (inactive)	–	> 10 µM (inactive)	> 10 µM (inactive)	> 10 µM (inactive)
C/C(N)=N/OCc1nc(C)no1	> 100 µM (inactive)	> 100 µM (inactive)	> 100 µM (inactive)	–	–	> 100 µM (inactive)	> 100 µM (inactive)	–	> 100 µM (inactive)	> 100 µM (inactive)	> 100 µM (inactive)	> 100 µM (inactive)	> 100 µM (inactive)	> 100 µM (inactive)	–	> 100 µM (inactive)	–	> 100 µM (inactive)	> 100 µM (inactive)	> 100 µM (inactive)
COc1ccc([C@@H]2ON(C)[C@H]3CN(C)C(=O)[C@@H]23)cc1	> 100 µM (inactive)	> 100 µM (inactive)	> 100 µM (inactive)	> 100 µM (inactive)	> 100 µM (inactive)	> 100 µM (inactive)	> 100 µM (inactive)	> 100 µM (inactive)	> 100 µM (inactive)	> 100 µM (inactive)	–	> 100 µM (inactive)	> 100 µM (inactive)	> 100 µM (inactive)	> 100 µM (inactive)	> 100 µM (inactive)	> 100 µM (inactive)	> 100 µM (inactive)	> 100 µM (inactive)	> 100 µM (inactive)
CC12CCC(C(=O)OC1=O)C(C)(C)O2 (stereo not drawn)	> 100 µM (inactive)	> 100 µM (inactive)	> 100 µM (inactive)	> 100 µM (inactive)	> 100 µM (inactive)	> 100 µM (inactive)	> 100 µM (inactive)	> 100 µM (inactive)	–	> 100 µM (inactive)	> 100 µM (inactive)	> 100 µM (inactive)	> 100 µM (inactive)	> 100 µM (inactive)	> 100 µM (inactive)	> 100 µM (inactive)	> 100 µM (inactive)	> 100 µM (inactive)	> 100 µM (inactive)	> 100 µM (inactive)
CC1CC2C3CCC4=CC(=O)C=CC4(C)C3(F)C(O)CC2(C)C1(O)C(=O)COP(=O)(O)O (stereo not drawn)	> 100 µM (inactive)	> 100 µM (inactive)	> 100 µM (inactive)	> 100 µM (inactive)	> 100 µM (inactive)	> 100 µM (inactive)	> 100 µM (inactive)	> 100 µM (inactive)	46.6 µM (inactive)	> 33.7 µM (inactive)	> 100 µM (inactive)	> 100 µM (inactive)	> 100 µM (inactive)	> 62.7 µM (inactive)	> 100 µM (inactive)	> 100 µM (inactive)	> 100 µM (inactive)	> 100 µM (inactive)	3.42 µM (inactive)	> 100 µM (inactive)
CC1[C@@]2(O[C@@H]3C=C4C5CCC6Cc7nc8c(nc7C[C@@]6(C)C5C[C@H](O)[C@@]4(C)[C@]13O)CC1CCc3c(cc4c5c3C(O)C[C@H]5[C@@H](C)C3(O4)OC(C)(C)CC3O)[C@]1(C)C8)O[C@@](C)(CO)C[C@@H]2O (stereo partly drawn)	0.102 µM (active)	–	1.38 µM (inactive)	0.618 µM (active)	0.436 µM (active)	–	1.39 µM (inactive)	0.23 µM (active)	–	0.558 µM (active)	0.146 µM (active)	–	1.91 µM (inactive)	–	0.185 µM (active)	0.49 µM (active)	–	0.659 µM (active)	0.0604 µM (active)	0.06 µM (active)
Oc1[nH]c(Nc2cccc(Br)c2)nc2ncnc1-2	–	87.1 µM (inactive)	71.8 µM (inactive)	> 100 µM (inactive)	23.6 µM (inactive)	15.5 µM (inactive)	> 100 µM (inactive)	> 100 µM (inactive)	76.4 µM (inactive)	53.8 µM (inactive)	> 100 µM (inactive)	> 100 µM (inactive)	> 100 µM (inactive)	> 100 µM (inactive)	> 100 µM (inactive)	> 100 µM (inactive)	52 µM (inactive)	> 100 µM (inactive)	> 100 µM (inactive)	> 100 µM (inactive)
Nc1ccn(C2OC(CO)C(O)C2O)c(=O)c1 (stereo not drawn)	136 µM (inactive)	–	> 625 µM (inactive)	–	–	285 µM (inactive)	360 µM (inactive)	143 µM (inactive)	–	125 µM (inactive)	–	–	63.2 µM (inactive)	–	> 625 µM (inactive)	610 µM (inactive)	279 µM (inactive)	176 µM (inactive)	174 µM (inactive)	> 625 µM (inactive)
